Results published in publication PMC2697495 (The Journal of pharmacy and pharmacology, 2008).
Marks after values point to notes of the source that are not given here.

Legend:
[1] = tested on: pooled human liver microsomes (pHLMs); test: Codeine glucuronidation by pHLMs; format: biochemical; settings: for Codeine glucuronidation, % of the control activity (measured at 0 mM): pHLM, 1 mM codeine, n=3
HLMs = settings: 5 mM saccharolactone, ref Kemp et al 2002; cited from earlier work
UGT1A3 = target: T1, UGT1A3 (Homo sapiens, UniProt P35503); test: Estradiol-3 glucuronidation by recombinant UGT1A3; format: biochemical; settings: for Estradiol-3 glucuronidation, % of the control activity (measured at 0 mM): UGT1A3, 100 μM estradiol, n=3
T1 sequence (P35503 29-534): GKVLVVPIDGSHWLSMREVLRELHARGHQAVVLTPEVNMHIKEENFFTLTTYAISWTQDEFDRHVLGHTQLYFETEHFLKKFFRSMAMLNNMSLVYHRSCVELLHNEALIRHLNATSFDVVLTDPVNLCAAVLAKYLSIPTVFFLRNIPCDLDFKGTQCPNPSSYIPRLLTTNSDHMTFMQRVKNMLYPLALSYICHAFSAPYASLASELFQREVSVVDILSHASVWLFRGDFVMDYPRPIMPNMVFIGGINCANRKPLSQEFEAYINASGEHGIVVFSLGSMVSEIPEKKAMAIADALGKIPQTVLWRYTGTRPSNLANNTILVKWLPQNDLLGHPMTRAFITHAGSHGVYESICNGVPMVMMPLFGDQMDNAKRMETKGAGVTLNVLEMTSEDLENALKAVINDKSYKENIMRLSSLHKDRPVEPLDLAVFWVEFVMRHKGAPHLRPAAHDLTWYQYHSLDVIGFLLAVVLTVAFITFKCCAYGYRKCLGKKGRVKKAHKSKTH

Question: What does the source list for `O=C(O)[C@@H](O)[C@H]1OC(=O)[C@H](O)[C@H]1O` [saccharolactone, D-saccharic acid 1,4-lactone]?
Answer: Codeine glucuronidation, % of the control activity (measured at 0 mM) ([1]; 1 mM saccharolactone): 98±7%; Codeine glucuronidation, % of the control activity (measured at 0 mM) ([1]; 2 mM saccharolactone): 97±4%; Codeine glucuronidation, % of the control activity (measured at 0 mM) ([1]; 5 mM saccharolactone): 91±2 ^a %; Codeine glucuronidation, % of the control activity (measured at 0 mM) ([1]; 10 mM saccharolactone): 95±5%; Codeine glucuronidation, % of the control activity (measured at 0 mM) ([1]; 20 mM saccharolactone): 88±8%; inhibition of codeine glucuronidation ([1]; pHLMs, 5 mM saccharolactone, p<0.05): 9%; effect on raloxifene glucuronidation (HLMs): inhibited; Estradiol-3 glucuronidation, % of the control activity (measured at 0 mM) (UGT1A3; 5 mM saccharolactone): 92±18%; Estradiol-3 glucuronidation, % of the control activity (measured at 0 mM) (UGT1A3; 20 mM saccharolactone): 97±10%; effect on estradiol glucuronidation (UGT1A3; recombinant UGT1A3): no effect
